Data published in the supplement of paper PMC10132981, “Formate overflow drives toxic folate trapping in MTHFD1 inhibited cancer cells” (Nature Metabolism, 2023).

What was measured:
SW620 MTHFD2-/- = experiment: cell viability relative to vehicle (resazurin, 96 h); higher = more viable; settings: base medium: RPMI + dialysed FBS
Experimental: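 SW620 WT or MTHFD2-/- cells were treated for 96 h with a compound dilution series (log10 M) in RPMI with normal or dialysed FBS. Viability was read by resazurin and is given as % of vehicle.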

HCT116 = experiment: cell viability relative to lowest-dose well (resazurin, 96 h); higher = more viable; settings: RPMI + 10% FBS
Procedure, shortened: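 Compounds from 10 mM DMSO stocks were dispensed as dilution series onto HCT116 (500 cells/well) or SW620 (1,000 cells/well) cells growing in 384-well plates in 50 µl RPMI, 10% FBS and a metabolite supplement. Plates were incubated 96 h at 37 °C, 5% CO2, then resazurin (10 µg ml^−1) was added and its conversion to resorufin read by fluorescence at 595 nm after 5 h. Viability is shown as percent of the lowest-dose well for independent replicate cultures.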

Cc1c(N2CCN(C)[C@@H](C)C2)ccc2c3c(c(=O)oc12)CN(C(=O)c1ccc(NS(C)(=O)=O)c(OC(F)(F)F)c1)CC3
SW620 MTHFD2-/-
Settings | cell viability [%]
log10 compound concentration (M): -5, supplement / serum: 50μM Hypoxanthine | 95.4
log10 compound concentration (M): -5, supplement / serum: 50μM Thymidine + 50μM Hypoxanthine | 108
log10 compound concentration (M): -5, supplement / serum: 50μMThymidine | 13.3
log10 compound concentration (M): -5, supplement / serum: Hypoxanthine | 85.7
log10 compound concentration (M): -5, supplement / serum: Hypoxanthine+Sodium Formate | 51.9
log10 compound concentration (M): -5, supplement / serum: No metabolite | 15.4
log10 compound concentration (M): -5, supplement / serum: Sodium Formate | 87.3
log10 compound concentration (M): -5, supplement / serum: Vehicle | 11.5
log10 compound concentration (M): -5.47712, supplement / serum: 50μM Hypoxanthine | 77.9
log10 compound concentration (M): -5.47712, supplement / serum: 50μM Thymidine + 50μM Hypoxanthine | 98
log10 compound concentration (M): -5.47712, supplement / serum: 50μMThymidine | 14.1
log10 compound concentration (M): -5.47712, supplement / serum: Hypoxanthine | 94.2
log10 compound concentration (M): -5.47712, supplement / serum: Hypoxanthine+Sodium Formate | 90.1
log10 compound concentration (M): -5.47712, supplement / serum: No metabolite | 14.8
log10 compound concentration (M): -5.47712, supplement / serum: Sodium Formate | 95.7
log10 compound concentration (M): -5.47712, supplement / serum: Vehicle | 13.5
log10 compound concentration (M): -5.95424, supplement / serum: 50μM Hypoxanthine | 99.7
log10 compound concentration (M): -5.95424, supplement / serum: 50μM Thymidine + 50μM Hypoxanthine | 111
log10 compound concentration (M): -5.95424, supplement / serum: 50μMThymidine | 20.9
log10 compound concentration (M): -5.95424, supplement / serum: Hypoxanthine | 101
log10 compound concentration (M): -5.95424, supplement / serum: Hypoxanthine+Sodium Formate | 99
log10 compound concentration (M): -5.95424, supplement / serum: No metabolite | 20.5
log10 compound concentration (M): -5.95424, supplement / serum: Sodium Formate | 97.1
log10 compound concentration (M): -5.95424, supplement / serum: Vehicle | 20.3
log10 compound concentration (M): -6.43136, supplement / serum: 50μM Hypoxanthine | 109
log10 compound concentration (M): -6.43136, supplement / serum: 50μM Thymidine + 50μM Hypoxanthine | 114
log10 compound concentration (M): -6.43136, supplement / serum: 50μMThymidine | 41.5
log10 compound concentration (M): -6.43136, supplement / serum: Hypoxanthine | 98
log10 compound concentration (M): -6.43136, supplement / serum: Hypoxanthine+Sodium Formate | 104
log10 compound concentration (M): -6.43136, supplement / serum: No metabolite | 43.5
log10 compound concentration (M): -6.43136, supplement / serum: Sodium Formate | 98.9
log10 compound concentration (M): -6.43136, supplement / serum: Vehicle | 44.8
log10 compound concentration (M): -6.90849, supplement / serum: 50μM Hypoxanthine | 99.4
log10 compound concentration (M): -6.90849, supplement / serum: 50μM Thymidine + 50μM Hypoxanthine | 101
log10 compound concentration (M): -6.90849, supplement / serum: 50μMThymidine | 59.6
log10 compound concentration (M): -6.90849, supplement / serum: Hypoxanthine | 99.5
log10 compound concentration (M): -6.90849, supplement / serum: Hypoxanthine+Sodium Formate | 98.9
log10 compound concentration (M): -6.90849, supplement / serum: No metabolite | 56.7
log10 compound concentration (M): -6.90849, supplement / serum: Sodium Formate | 100
log10 compound concentration (M): -6.90849, supplement / serum: Vehicle | 74.4
log10 compound concentration (M): -7.38561, supplement / serum: 50μM Hypoxanthine | 67.2
log10 compound concentration (M): -7.38561, supplement / serum: 50μM Thymidine + 50μM Hypoxanthine | 110
log10 compound concentration (M): -7.38561, supplement / serum: 50μMThymidine | 61.2
log10 compound concentration (M): -7.38561, supplement / serum: Hypoxanthine | 85.2
log10 compound concentration (M): -7.38561, supplement / serum: Hypoxanthine+Sodium Formate | 83
log10 compound concentration (M): -7.38561, supplement / serum: No metabolite | 50
log10 compound concentration (M): -7.38561, supplement / serum: Sodium Formate | 76.9
log10 compound concentration (M): -7.38561, supplement / serum: Vehicle | 56.4
log10 compound concentration (M): -7.86273, supplement / serum: 50μM Hypoxanthine | 104
log10 compound concentration (M): -7.86273, supplement / serum: 50μM Thymidine + 50μM Hypoxanthine | 105
log10 compound concentration (M): -7.86273, supplement / serum: 50μMThymidine | 67.2
log10 compound concentration (M): -7.86273, supplement / serum: Hypoxanthine | 88.9
log10 compound concentration (M): -7.86273, supplement / serum: Hypoxanthine+Sodium Formate | 94.5
log10 compound concentration (M): -7.86273, supplement / serum: No metabolite | 72.2
log10 compound concentration (M): -7.86273, supplement / serum: Sodium Formate | 94.4
log10 compound concentration (M): -7.86273, supplement / serum: Vehicle | 80.2
log10 compound concentration (M): -8.33985, supplement / serum: 50μM Hypoxanthine | 104
log10 compound concentration (M): -8.33985, supplement / serum: 50μM Thymidine + 50μM Hypoxanthine | 95
log10 compound concentration (M): -8.33985, supplement / serum: 50μMThymidine | 77.3
log10 compound concentration (M): -8.33985, supplement / serum: Hypoxanthine | 93.9
log10 compound concentration (M): -8.33985, supplement / serum: Hypoxanthine+Sodium Formate | 101
log10 compound concentration (M): -8.33985, supplement / serum: No metabolite | 90
log10 compound concentration (M): -8.33985, supplement / serum: Sodium Formate | 92.2
log10 compound concentration (M): -8.33985, supplement / serum: Vehicle | 92.8
log10 compound concentration (M): -8.81697, supplement / serum: 50μM Hypoxanthine | 114
log10 compound concentration (M): -8.81697, supplement / serum: 50μM Thymidine + 50μM Hypoxanthine | 113
log10 compound concentration (M): -8.81697, supplement / serum: 50μMThymidine | 94
log10 compound concentration (M): -8.81697, supplement / serum: Hypoxanthine | 94.5
log10 compound concentration (M): -8.81697, supplement / serum: Hypoxanthine+Sodium Formate | 95.1
log10 compound concentration (M): -8.81697, supplement / serum: No metabolite | 96.4
log10 compound concentration (M): -8.81697, supplement / serum: Sodium Formate | 95.3
log10 compound concentration (M): -8.81697, supplement / serum: Vehicle | 94.3
log10 compound concentration (M): -9.29409, supplement / serum: 50μM Hypoxanthine | 96.5
log10 compound concentration (M): -9.29409, supplement / serum: 50μM Thymidine + 50μM Hypoxanthine | 113
log10 compound concentration (M): -9.29409, supplement / serum: 50μMThymidine | 95.6
log10 compound concentration (M): -9.29409, supplement / serum: Hypoxanthine | 95.9
log10 compound concentration (M): -9.29409, supplement / serum: Hypoxanthine+Sodium Formate | 94.7
log10 compound concentration (M): -9.29409, supplement / serum: No metabolite | 104
log10 compound concentration (M): -9.29409, supplement / serum: Sodium Formate | 98.8
log10 compound concentration (M): -9.29409, supplement / serum: Vehicle | 97
log10 compound concentration (M): -9.77121, supplement / serum: 50μM Hypoxanthine | 106
log10 compound concentration (M): -9.77121, supplement / serum: 50μM Thymidine + 50μM Hypoxanthine | 124
log10 compound concentration (M): -9.77121, supplement / serum: 50μMThymidine | 92.7
log10 compound concentration (M): -9.77121, supplement / serum: Hypoxanthine | 95
log10 compound concentration (M): -9.77121, supplement / serum: Hypoxanthine+Sodium Formate | 98.8
log10 compound concentration (M): -9.77121, supplement / serum: No metabolite | 110
log10 compound concentration (M): -9.77121, supplement / serum: Sodium Formate | 99.3
log10 compound concentration (M): -9.77121, supplement / serum: Vehicle | 96.2

O=c1[nH]cc(F)c(=O)[nH]1 [5-fluorouracil]
cell viability [%], HCT116
Settings | 0.0001 M | 0.01 µM | 0.0278 µM | 0.0774 µM | 0.215 µM | 0.599 µM | 1.67 µM | 4.64 µM | 12.9 µM | 35.9 µM
metabolite supplement: 50uM thymidine | 4.77 | 98.1 | 96.2 | 96.3 | 97.9 | 91.9 | 63.7 | 24.6 | 11.8 | 6.83
metabolite supplement: 50uM thymidine + 250uM hypoxanthine | 5.93 | 106 | 104 | 105 | 106 | 103 | 84 | 39.7 | 15.7 | 8.5
metabolite supplement: 250uM hypoxanthine | 4.9 | 100 | 96.9 | 97.3 | 96.8 | 90.6 | 78.4 | 33.2 | 13 | 7.4
metabolite supplement: vehicle | 4.53 | 102 | 102 | 101 | 99.6 | 94.6 | 65 | 22.9 | 11.1 | 6.67

Cc1[nH]nc2c1C(c1cc(CO)cc(-c3ccccc3)c1)(C(C)C)C(C#N)=C(N)O2 (configuration not stated) [SHIN1]
SW620 MTHFD2-/-
Settings | cell viability [%]
log10 compound concentration (M): -5, supplement / serum: Hypoxanthine | 88.2
log10 compound concentration (M): -5, supplement / serum: Hypoxanthine+Sodium Formate | 91.8
log10 compound concentration (M): -5, supplement / serum: Sodium Formate | 83.5
log10 compound concentration (M): -5, supplement / serum: Vehicle | 12.1
log10 compound concentration (M): -5.47712, supplement / serum: Hypoxanthine | 102
log10 compound concentration (M): -5.47712, supplement / serum: Hypoxanthine+Sodium Formate | 109
log10 compound concentration (M): -5.47712, supplement / serum: Sodium Formate | 104
log10 compound concentration (M): -5.47712, supplement / serum: Vehicle | 13.6
log10 compound concentration (M): -5.95424, supplement / serum: Hypoxanthine | 105
log10 compound concentration (M): -5.95424, supplement / serum: Hypoxanthine+Sodium Formate | 107
log10 compound concentration (M): -5.95424, supplement / serum: Sodium Formate | 99.9
log10 compound concentration (M): -5.95424, supplement / serum: Vehicle | 13.9
log10 compound concentration (M): -6.43136, supplement / serum: Hypoxanthine | 103
log10 compound concentration (M): -6.43136, supplement / serum: Hypoxanthine+Sodium Formate | 109
log10 compound concentration (M): -6.43136, supplement / serum: Sodium Formate | 102
log10 compound concentration (M): -6.43136, supplement / serum: Vehicle | 14.8
log10 compound concentration (M): -6.90849, supplement / serum: Hypoxanthine | 101
log10 compound concentration (M): -6.90849, supplement / serum: Hypoxanthine+Sodium Formate | 104
log10 compound concentration (M): -6.90849, supplement / serum: Sodium Formate | 108
log10 compound concentration (M): -6.90849, supplement / serum: Vehicle | 16.4
log10 compound concentration (M): -7.38561, supplement / serum: Hypoxanthine | 88.3
log10 compound concentration (M): -7.38561, supplement / serum: Hypoxanthine+Sodium Formate | 86.8
log10 compound concentration (M): -7.38561, supplement / serum: Sodium Formate | 85.4
log10 compound concentration (M): -7.38561, supplement / serum: Vehicle | 14
log10 compound concentration (M): -7.86273, supplement / serum: Hypoxanthine | 92.2
log10 compound concentration (M): -7.86273, supplement / serum: Hypoxanthine+Sodium Formate | 99.9
log10 compound concentration (M): -7.86273, supplement / serum: Sodium Formate | 90.9
log10 compound concentration (M): -7.86273, supplement / serum: Vehicle | 27.1
log10 compound concentration (M): -8.33985, supplement / serum: Hypoxanthine | 101
log10 compound concentration (M): -8.33985, supplement / serum: Hypoxanthine+Sodium Formate | 102
log10 compound concentration (M): -8.33985, supplement / serum: Sodium Formate | 99.8
log10 compound concentration (M): -8.33985, supplement / serum: Vehicle | 47.3
log10 compound concentration (M): -8.81697, supplement / serum: Hypoxanthine | 101
log10 compound concentration (M): -8.81697, supplement / serum: Hypoxanthine+Sodium Formate | 103
log10 compound concentration (M): -8.81697, supplement / serum: Sodium Formate | 99
log10 compound concentration (M): -8.81697, supplement / serum: Vehicle | 65.1
log10 compound concentration (M): -9.29409, supplement / serum: Hypoxanthine | 96.8
log10 compound concentration (M): -9.29409, supplement / serum: Hypoxanthine+Sodium Formate | 99.9
log10 compound concentration (M): -9.29409, supplement / serum: Sodium Formate | 97.1
log10 compound concentration (M): -9.29409, supplement / serum: Vehicle | 85.7
log10 compound concentration (M): -9.77121, supplement / serum: Hypoxanthine | 102
log10 compound concentration (M): -9.77121, supplement / serum: Hypoxanthine+Sodium Formate | 105
log10 compound concentration (M): -9.77121, supplement / serum: Sodium Formate | 98.8
log10 compound concentration (M): -9.77121, supplement / serum: Vehicle | 92.1
